Measured values taken from patent US6906203B1, “Substituted 4H-chromene and analogs as activators of caspases and inducers of apoptosis and the use thereof” (Cytovia, Inc., priority 1999, dated 2005).
Entries after “also recorded” stand apart in the source; their conditions may differ. Like-named read-outs stand apart in the source and are kept apart here.

Experiments:
T-47D cells [1] = assay: Caspase cascade activation assay (N-(Ac-DEVD)-N'-ethoxycarbonyl-R110 fluorogenic substrate) in T-47D; format: cell-based, Human; conditions: 24 h incubation; for EC50: read-out: Caspase potency EC50; for Caspase activity Ratio: ratio of net RFU of test compound to control
Method: (§1) Human breast cancer cell lines T47D and ZR-75-1 were grown according to media component mixtures designated by American Type Culture Collection +10% FCS (Life Technologies, Inc.), in a 5% CO2-95% humidity incubator at 37° C. T-47D and ZR-75-1 cells were maintained at a cell density between 30 and 80% confluency at a cell density of 0.1 to 0.6×10^6 cells/ml. Cells were harvested at 600×g and resuspended at 0.65×10^6 cells/ml into appropriate media +10% FCS . […] An aliquot of 45 μl of cells was added to a well of a 96-well microtiter plate containing 5 μl of a 10% DMSO in RPMI-1640 media solution without test compound as the control sample. The samples were mixed by agitation and then incubated at 37° C. for 24 h in a 5% CO2-95% humidity incubator. After incubation, the samples were removed from the incubator and 50 μl of a solution containing 20 μM of N-(Ac-DEVD)-N′-ethoxycarbonyl-R110 (SEQ ID NO: 1) fluorogenic substrate (Cytovia, Inc.; WO99/18856), 20% sucrose (Sigma), 20 mM DTT (Sigma), 200 mM NaCl (Sigma), 40 mM Na PIPES buffer pH 7.2, and 500 μg/ml lysolecithin (Calbiochem) was added. The samples were mixed by agitation and incubated at room temperature. Using a fluorescent plate reader (Model 1420 Wallac Instruments), an initial reading (T=0) was made approximately 1-2 min after addition of the substrate solution, employing excitation at 485 nm and emission at 530 nm, to determine the background fluorescence of the control sample. After the 3 h incubation, the samples were read for fluorescence as above (T=3 h).
(§2) The Relative Fluorescence Unit values (RFU) were used to calculate the sample readings as follows: RFU(T=3h)−Control RFU (T=0)=Net RFU(T=3h)
(§3) The EC50 (nM) was determined by a sigmoidal dose-response calculation (Prism 2.0, GraphPad Software Inc.).

ZR-75-1 cells [2] = assay: Caspase cascade activation assay (N-(Ac-DEVD)-N'-ethoxycarbonyl-R110 fluorogenic substrate) in ZR-75-1; format: cell-based, Human; conditions: 24 h incubation; for EC50: read-out: Caspase potency EC50; for Caspase activity Ratio: ratio of net RFU of test compound to control
Method: as §1, §2, §3

T-47D cells [3] = assay: Inhibition of cell proliferation (GI50), CellTiter 96 AQUEOUS One, T-47D; format: cell-based; conditions: Homo sapiens, T47D, 48 h
Method: (§4) T-47D and ZR-75-1 cells were grown and harvested as in Example 148. An aliquot of 90 μl of cells ([…] cells/ml) was added to a well of a 96-well microtiter plate containing 10 μl of a 10% DMSO in RPMI-1640 media solution containing 1 nM to 100 μM of 2-amino-3-cyano-7-dimethylamino-4-(3-methoxy-4,5-methylenedioxyphenyl)-4H-chromene (Example 19) or other test compound (0.1 nM to 10 μM final). An aliquot of 90 μl of cells was added to a well of a 96-well microtiter plate containing 10 μl of a 10% DMSO in RPMI-1640 media solution without compound as the control sample for maximal cell proliferation (Amax). The samples were mixed by agitation and then incubated at 37° C. for 48 h in a 5% CO2-95% humidity incubator. […] Using an absorbance plate reader (Model 1420 Wallac Instruments), an initial reading (T=0) was made approximately 1-2 min after addition of the solution, employing absorbance at 490 nm. This determines the possible background absorbance of the test compounds. No absorbance for 2-amino-3-cyano-7-dimethylamino-4-(3-methoxy-4,5-methylenedioxyphenyl)-4H-chromene or its analogs was found at 490 nm. […]
(§5) The samples were mixed by agitation and then incubated at 37° C. for 0.5 h in a 5% CO2-95% humidity incubator. […] Absorbance was read as above, (AT=0) defining absorbance for initial cell number used as baseline in GI50 determinations.

T47D cells = assay: Cell cycle arrest by flow cytometry (propidium iodide), T47D; format: cell-based, Human; conditions: 1 μM, 18 h
Method: (§6) T47D, ZR-75-1 breast cancer cell lines and PC-3, an androgen-independent prostate cancer cell line were maintained and harvested as described in Example 148. Jurkat T leukemia cells were grown in RPMI 1640 media (Life Technologies, Inc.) +10% FCS (Sigma Chemical Company) in a 5% CO2-95% humidity incubator at 37° C., and maintained at a cell density between 4 and 8×10^5 cells/ml. 1×10^6 cells were induced with 1 μM of 2-amino-3-cyano-7-dimethylamino-4-(3-methoxy-4,5-methylenedioxyphenyl)-4H-chromene or 2-amino-3-cyano-7-dimethylamino-4-(3,4-methylenedioxyphenyl)-4H-chromene for 18 h at 37° C. As a control, cells were also incubated with DMSO. Cells were harvested at 1200 rpm and washed twice with 5 mM EDTA/PBS. Cells were then resuspended in 300 μl EDTA/PBS and […] of 100% ethanol, vortexed and incubated at room temperature for 1 h. Samples were spun down at 12000 rpm for 5 min and the supernatant was removed. A solution containing 100 μg/ml of propidium iodide and 1 mg/ml of RNAse A (fresh) was added to the samples and incubated for 1 h at room temperature. Samples were then transferred to 12×75 mm polystyrene tubes and analysed on a flow cytometer. All flow cytometry analyses were performed on FACScalibur (Becton Dickinson) using Cell Quest analysis software.

Jurkat cells [4] = assay: Mitotic arrest in Jurkat cells (mitotic figures, Syto 16); format: cell-based; conditions: 6 h
Method: Jurkat cells were incubated with a range of concentrations of 2-amino-3-cyano-7-dimethylamino-4-(3-methoxy-4,5-methylenedioxyphenyl)-4H-chromene (0.02 μM to 5 μM) for 6 h under normal growth conditions; control cultures were treated with DMSO vehicle. The cells were then treated for 20 min. with 800 nM Syto 16. Cytospin preparations were then prepared and the samples were viewed by fluorescent microscopy using a fluorescein filter set. For each concentration of test compound, the number of mitotic figures were counted and expressed as a percentage of the total number of cells. Three fields from each condition were evaluated and the mean and SEM were calculated and plotted as a function of drug concentration (FIG. 3).

Jurkat cells [5] = assay: Nuclear fragmentation in Jurkat cells (Syto16 staining); format: cell-based; conditions: 100 nM or higher, 24 h
Method: The ability of 2-amino-3-cyano-7-dimethylamino-4-(3-methoxy-4,5-methylenedioxyphenyl)-4H-chromene to induce nuclear fragmentation was tested by treatment of Jurkat cells with the test compound followed by staining of the nucleus with Syto16, a fluorescent DNA dye. The nuclei of Jurkat cells treated with DMSO vehicle are round with dispersed chromatin that is moderately stained with Syto16 (FIG. 1A).

[6] = tested on: poly(ADP)ribose polymerase (PARP) cleavage in Jurkat cells; assay: PARP cleavage in Jurkat cells (western blot); format: cell-based
Method: A wide range of natural substrates are cleaved by the caspases during apoptosis. One of these is poly(ADP)ribose polymerase (PARP), an enzyme important in genome surveillance. The ability of 2-amino-3-cyano-7-dimethylamino-4-(3-methoxy-4,5-methylenedioxyphenyl)-4H-chromene to induce PARP cleavage was tested by treating Jurkat cells with the compound at a concentration of 2.5 μM for 5, 15 and 30 h. Control cultures were treated with DMSO vehicle or staurosporine, a known apoptosis inducer.

Jurkat T leukemia cells = assay: Cell cycle arrest by flow cytometry (propidium iodide), Jurkat; format: cell-based; conditions: 1 μM, 18 h
Method: as §6

ZR-75-1 cells [7] = assay: Inhibition of cell proliferation (GI50), CellTiter 96 AQUEOUS One, ZR-75-1; format: cell-based; conditions: Homo sapiens, ZR-75-1, 48 h
Method: as §4, §5

PC-3 cells = assay: Cell cycle arrest by flow cytometry (propidium iodide), PC-3; format: cell-based; conditions: 1 μM, 18 h
Method: as §6

[8] = Homo sapiens, T47D, 0.016 to 1 μM final
[9] = Homo sapiens, 0.016 to 1 μM final

Compound	EC50 (T-47D cells [1]; [8]) [nM]	Caspase activity Ratio (T-47D cells [1])	EC50 (ZR-75-1 cells [2]; [9]) [nM]	Caspase activity Ratio (ZR-75-1 cells [2])	other results
COc1cc(C2C3=CC=C4N=CC=C4C3OC(N)=C2C#N)cc(OC)c1OC (centres unmarked) [Example 99, 2-Amino-3-cyano-4-(3,4,5-trimethoxyphenyl)-4H-indolo[4,5-b]pyran]	36	2.8	23	4.3	–
COc1cc(C2C(C#N)=C(N)Oc3cc4c(cc32)OCO4)cc2c1OCO2 (centres unmarked) [Example 14, 2-Amino-3-cyano-4-(3-methoxy-4,5-methylenedioxyphenyl)-6,7-methylenedioxy-4H-chromene]	172	5.5	96	9.0	–
COc1cc(C2C3=CC=C4N=CC=C4C3OC(N)=C2C#N)cc2c1OCO2 (centres unmarked) [Example 94, 2-Amino-3-cyano-4-(3-methoxy-4,5-methylenedioxyphenyl)-4H-indolo[4,5-b]pyran]	49	6.5	25	7.8	–
COc1cc(C2C(C#N)=C(N)Oc3cc(N(C)C)ccc32)cc2c1OCO2 (centres unmarked) [Example 19, 2-Amino-3-cyano-7-dimethylamino-4-(3-methoxy-4,5-methylenedioxyphenyl)-4H-chromene]	87	5.5	38	6.3	GI50 (T-47D cells [3]): 3 nM; Cell cycle arrest (T47D cells): progression and arrest in G2/M; also recorded: induce cell cycle arrest; Percent mitotic arrest versus drug concentration (Jurkat cells [4]; up to 1.0 μM (FIG. 3)): increasing percent mitotic arrest with increasing drug concentration; EC50 (Jurkat cells [4]; Homo sapiens, 0.02 μM to 5 μM): ~125 nM; Nuclear fragmentation (Jurkat cells [5]): shrunken and fragmented nuclei; PARP cleavage at 30 h [6]: virtually all of PARP was converted into its cleaved form; Cell cycle arrest (Jurkat T leukemia cells): progression and arrest in S/G2/M; also recorded: induces cell cycle arrest; GI50 (ZR-75-1 cells [7]): 500 nM; Cell cycle arrest (PC-3 cells): progression and arrest in G2/M; also recorded: induce cell cycle arrest
CN(C)c1ccc2c(c1)OC(N)=C(C#N)C2c1ccc2c(c1)OCO2 (centres unmarked) [Example 1, 2-Amino-3-cyano-7-dimethylamino-4-(3,4-methylenedioxyphenyl)-4H-chromene]	–	–	60	4.2	GI50 (T-47D cells [3]): 100 nM; Cell cycle arrest (T47D cells): progression and arrest in G2/M; also recorded: induce cell cycle arrest; GI50 (ZR-75-1 cells [7]): 10000 nM; Cell cycle arrest (PC-3 cells; listed as 2-amino-3-cyano-7-dimethylamino-4-(3,4-methylenedioxyphenyl)-4-H-chromene): progression and arrest in G2/M; Cell cycle arrest (PC-3 cells; listed as 2-amino-3-cyano-7-dimethylamino-4-(3,4-methylenedioxyphenyl)-4H-chromene): induce cell cycle arrest
COc1cc(Br)c(C2C3=CC=C4N=CC=C4C3OC(N)=C2C#N)cc1OC (centres unmarked) [Example 95, 2-Amino-3-cyano-4-(2-bromo-4,5-dimethoxyphenyl)-4H-indolo[4,5-b]pyran]	720	3.8	364	5.1	–
COc1cc(C2C(C#N)=C(N)Oc3c2ccc2ccccc32)cc(Br)c1OC (centres unmarked) [Example 103, 2-Amino-3-cyano-4-(3-bromo-4,5-dimethoxyphenyl)-4H-naphtho[1,2-b]pyran]	17	2.2	12	4.2	–
COc1cc(C2C3=CC=C4N=CC=C4C3OC(N)=C2C#N)cc(Br)c1OC (centres unmarked) [Example 97, 2-Amino-3-cyano-4-(3-bromo-4,5-dimethoxyphenyl)-4H-indolo[4,5-b]pyran]	6	2.7	7	5.0	–
CN(C)c1ccc2c(c1)OC(N)=C(C#N)C2c1cccc([N+](=O)[O-])c1 (centres unmarked) [Example 38, 2-Amino-3-cyano-7-dimethylamino-4-(3-nitrophenyl)-4H-chromene]	45	12.7	22	6.5	–
COc1cc(Br)c(C2C3=CC=C4N=C(C)C=C4C3OC(N)=C2C#N)cc1OC (centres unmarked) [Example 96, 2-Amino-3-cyano-4-(2-bromo-4,5-dimethoxyphenyl)-8-methyl-4H-indolo[4,5-b]pyran]	–	Inactive	–	Inactive	Caspase potency EC50 (nM) (T-47D cells [1]; 0.016 to 1 μM final): Inactive; Caspase potency EC50 (nM) (ZR-75-1 cells [2]; 0.016 to 1 μM final): Inactive
Cc1ccc(C2C(C#N)=C(N)Oc3cc(N(C)C)ccc32)cc1[N+](=O)[O-] (centres unmarked) [Example 4, 2-Amino-3-cyano-7-dimethylamino-4-(4-methyl-3-nitropheyl)-4H-chromene]	–	6.0	–	6.6	EC50 (T-47D cells [1]; 0.016 to 1 μM final): 200 nM; EC50 (ZR-75-1 cells [2]; 0.016 to 1 μM final): 150 nM
